US4401660A, “Ester derivatives of 5-O-mycaminosyl tylonolide and method of using same” (Eli Lilly and Company, priority 1981, dated 1983)

How the values were obtained:
Format in all cases: cell-based
Set-up in all cases: unit not given here
[1] = system: Haemophilus influenzae Holt; assay: MIC, standard agar-dilution assay (Table II); conditions: ampicillin-sensitive strain
Experimental: (§1) The MIC's in Table II were determined by standard agar-dilution assays. The MIC's in Table III were obtained using a conventional broth-dilution microtiter test.

[2] = system: Haemophilus influenzae R252; assay: MIC, standard agar-dilution assay (Table II); conditions: Haemophilus influenzae R252, ampicillin-resistant strain
Experimental: as §1

[3] = system: Staphylococcus aureus S13E; assay: MIC, standard agar-dilution assay (Table II)
Experimental: as §1

[4] = system: Staphylococcus aureus V41; assay: MIC, standard agar-dilution assay (Table II); conditions: Staphylococcus aureus V41, penicillin-resistant strain
Experimental: as §1

[5] = system: Staphylococcus aureus X1.1; assay: MIC, standard agar-dilution assay (Table II)
Experimental: as §1

[6] = system: Staphylococcus aureus X400; assay: MIC, standard agar-dilution assay (Table II); conditions: Staphylococcus aureus X400, methicillin-resistant strain
Experimental: as §1

[7] = system: Staphylococcus epidermidis EPI1; assay: MIC, standard agar-dilution assay (Table II)
Experimental: as §1

[8] = system: Staphylococcus epidermidis EPI2; assay: MIC, standard agar-dilution assay (Table II)
Experimental: as §1

[9] = system: Streptococcus Group D 9960; assay: MIC, standard agar-dilution assay (Table II)
Experimental: as §1

[10] = system: Streptococcus Group D X66; assay: MIC, standard agar-dilution assay (Table II)
Experimental: as §1

[11] = system: Streptococcus pneumoniae Park I; assay: MIC, standard agar-dilution assay (Table II)
Experimental: as §1

[12] = system: Streptococcus pyogenes C203; assay: MIC, standard agar-dilution assay (Table II)
Experimental: as §1

Mycoplasma gallisepticum = assay: MIC, broth-dilution microtiter test (Table III)
Experimental: as §1

Mycoplasma hyorhinis = assay: MIC, broth-dilution microtiter test (Table III)
Experimental: as §1

Mycoplasma synoviae = assay: MIC, broth-dilution microtiter test (Table III)
Experimental: as §1

[13] = system: Pasteurella haemolytica 22C; assay: MIC, broth-dilution microtiter test (Table III)
Experimental: as §1

[14] = system: Pasteurella haemolytica 23C; assay: MIC, broth-dilution microtiter test (Table III)
Experimental: as §1

[15] = system: Pasteurella haemolytica 41D; assay: MIC, broth-dilution microtiter test (Table III)
Experimental: as §1

[16] = system: Pasteurella multocida 17E; assay: MIC, broth-dilution microtiter test (Table III); conditions: bovine isolate
Experimental: as §1

[17] = system: Pasteurella multocida 22A; assay: MIC, broth-dilution microtiter test (Table III)
Experimental: as §1

[18] = system: Pasteurella multocida 40G; assay: MIC, broth-dilution microtiter test (Table III)
Experimental: as §1

[19] = system: Pasteurella multocida 60A; assay: MIC, broth-dilution microtiter test (Table III); conditions: avian isolate
Experimental: as §1

[20] = system: Pasteurella multocida 68C; assay: MIC, broth-dilution microtiter test (Table III)
Experimental: as §1

Staphylococcus aureus = assay: MIC, broth-dilution microtiter test (Table III)
Experimental: as §1

Streptococcus sp. 80 = assay: MIC, broth-dilution microtiter test (Table III)
Experimental: as §1

Row | SMILES | minimal inhibitory concentration (MIC) [1] | minimal inhibitory concentration (MIC) [2] | minimal inhibitory concentration (MIC) [3] | minimal inhibitory concentration (MIC) [4] | minimal inhibitory concentration (MIC) [5] | minimal inhibitory concentration (MIC) [6] | minimal inhibitory concentration (MIC) [7] | minimal inhibitory concentration (MIC) [8] | minimal inhibitory concentration (MIC) [9] | minimal inhibitory concentration (MIC) [10] | minimal inhibitory concentration (MIC) [11] | minimal inhibitory concentration (MIC) [12] | minimal inhibitory concentration (MIC) (Mycoplasma gallisepticum) | minimal inhibitory concentration (MIC) (Mycoplasma hyorhinis) | minimal inhibitory concentration (MIC) (Mycoplasma synoviae) | minimal inhibitory concentration (MIC) [13] | minimal inhibitory concentration (MIC) [14] | minimal inhibitory concentration (MIC) [15] | minimal inhibitory concentration (MIC) [16] | minimal inhibitory concentration (MIC) [17] | further results
1 | CCC1OC(=O)CC(O)C(C)C(OC2OC(C)C(O)C(N(C)C)C2OC(C)=O)C(CC=O)CC(C)C(=O)C=CC(C)=CC1COC(=O)CCCCc1ccccc1 (centres unmarked) [Compound 60] | 2 | 2 | 0.25 | 0.25 | 0.25 | 0.25 | 0.25 | 0.5 | 0.25 | 0.25 | 0.125 | 0.25 | < 0.05 | 6.25 | 0.78 | 6.25 | 6.25 | 6.25 | 3.12 | 3.12 | minimal inhibitory concentration (MIC) [18]: 12.5; minimal inhibitory concentration (MIC) [19]: 3.12; minimal inhibitory concentration (MIC) [20]: 1.56; minimal inhibitory concentration (MIC) (Staphylococcus aureus): 0.39; minimal inhibitory concentration (MIC) (Streptococcus sp. 80): 0.39
2 | CCC1OC(=O)CC(O)C(C)C(OC2OC(C)C(OC(=O)c3ccccc3)C(N(C)C)C2OC(=O)c2ccccc2)C(CC=O)CC(C)C(=O)C=CC(C)=CC1CO (centres unmarked) [Compound 5, 2',4'-Di-O-benzoyl-OMT] | 64 | 64 | 32 | 32 | 8 | 64 | 8 | 4 | 8 | 8 | 0.5 | 2 | 12.5 | 50 | 12.5 | > 50 | > 50 | > 50 | 50 | > 50 | minimal inhibitory concentration (MIC) [18]: 50; minimal inhibitory concentration (MIC) [19]: 50; minimal inhibitory concentration (MIC) [20]: 25; minimal inhibitory concentration (MIC) (Staphylococcus aureus): 6.25; minimal inhibitory concentration (MIC) (Streptococcus sp. 80): 3.12
3 | CCC1OC(=O)CC(O)C(C)C(OC2OC(C)C(O)C(N(C)C)C2OC(C)=O)C(CC=O)CC(C)C(=O)C=CC(C)=CC1COC(=O)C12CC3CC(CC(C3)C1)C2 (centres unmarked) [Compound 69] | 8 | 16 | 1 | 1 | 1 | 1 | 1 | 1 | 2 | 2 | 0.5 | 1 | 0.78 | 3.12 | 1.56 | 25 | 25 | 25 | 12.5 | 12.5 | minimal inhibitory concentration (MIC) [18]: 12.5; minimal inhibitory concentration (MIC) [19]: 12.5; minimal inhibitory concentration (MIC) [20]: 12.5; minimal inhibitory concentration (MIC) (Staphylococcus aureus): 6.25; minimal inhibitory concentration (MIC) (Streptococcus sp. 80): 1.56
4 | CCC1OC(=O)CC(O)C(C)C(OC2OC(C)C(O)C(N(C)C)C2O)C(CC=O)CC(C)C(=O)C=CC(C)=CC1COC(=O)CCCCc1ccccc1 (centres unmarked) [Compound 61] | 2 | 2 | 0.25 | 0.25 | 0.25 | 0.25 | 0.25 | 0.25 | 0.25 | 0.25 | 0.06 | 0.25 | 0.78 | 6.25 | 1.56 | 12.5 | 12.5 | 6.25 | 6.25 | 6.25 | minimal inhibitory concentration (MIC) [18]: 6.25; minimal inhibitory concentration (MIC) [19]: 3.12; minimal inhibitory concentration (MIC) [20]: 6.25; minimal inhibitory concentration (MIC) (Staphylococcus aureus): 1.56; minimal inhibitory concentration (MIC) (Streptococcus sp. 80): 1.56
5 | CCC1OC(=O)CC(O)C(C)C(OC2OC(C)C(O)C(N(C)C)C2OC(C)=O)C(CC=O)CC(C)C(=O)C=CC(C)=CC1COC(=O)c1ccc2ccccc2c1 (centres unmarked) [Compound 58] | 2 | 1 | 0.25 | 0.5 | 0.25 | 0.5 | 0.25 | 0.5 | 0.5 | 0.25 | 0.03 | 0.125 | < 0.05 | 6.25 | 0.78 | 12.5 | 6.25 | 6.25 | 3.12 | 6.25 | minimal inhibitory concentration (MIC) [18]: 3.12; minimal inhibitory concentration (MIC) [19]: 3.12; minimal inhibitory concentration (MIC) [20]: 1.56; minimal inhibitory concentration (MIC) (Staphylococcus aureus): 1.56; minimal inhibitory concentration (MIC) (Streptococcus sp. 80): 0.78
